From patent publication US5525599A, “7-substituted-amino-3-substituted-3-cephem-4-carboxylic acids” (Eli Lilly and Company, priority 1993, dated 1996)
In brackets after ≈: the same amount, converted by molar mass. Like-named read-outs stand apart in the source and are kept apart here.

Tests used:
E. coli (EC14) = test: In vitro activity (MIC), agar dilution method; type: cell-based; conditions: Escherichia coli
Procedure: (§1) Cephalosporins 9a-o were assayed against a broad array of Gram-positive and Gram-negative bacteria in Mueller-Hinton agar by the 2-fold serial dilution method, (Kirst, H. A.; J. Antibiot. 1982, 35, 1675).
(§2) Test compounds were diluted to an appropriate range of concentrations in 0.1M phosphate buffer (pH 7), incorporated into Mueller-Hinton agar (difco) supplemented with 1% Bacto-Supplement C (Difco) at 50° C. and allowed to solidify in petri dishes. Fresh overnight cultures of test bacteria were diluted to approximately 1×10^4 cells/mL aand applied in […] to the surface of the agar plates. The inoculated plates were incubated overnight at 35° C. in ambient air. MIC endpoints were recorded as the lowest antibiotic concentrations that inhibited the development of visible bacterial growth on the plates.

E. coli (N10) = test: In vitro activity (MIC), agar dilution method; type: cell-based; conditions: Escherichia coli
Procedure: as §1, §2

E. coli (TEM) = test: In vitro activity (MIC), agar dilution method; type: cell-based; conditions: Escherichia coli
Procedure: as §1, §2

Enter. faecalis (2041) = test: In vitro activity (MIC), agar dilution method; type: cell-based; conditions: Enterococcus faecalis; Enter. faecalis (2041), agar dilution; read-out: MIC
Procedure: as §1, §2

Enter. faecium (X66) = test: In vitro activity (MIC), agar dilution method; type: cell-based; conditions: Enterococcus faecium; Enter. faecium (X66), agar dilution; read-out: MIC
Procedure: as §1, §2

K. pneumonia (KAE) = test: In vitro activity (MIC), agar dilution method; type: cell-based; conditions: Klebsiella pneumoniae
Procedure: as §1, §2

K. pneumonia (X26) = test: In vitro activity (MIC), agar dilution method; type: cell-based; conditions: Klebsiella pneumoniae; K. pneumonia (X26), agar dilution; read-out: MIC
Procedure: as §1, §2

K. pneumonia (X68) = test: In vitro activity (MIC), agar dilution method; type: cell-based; conditions: Klebsiella pneumoniae
Procedure: as §1, §2

Staph. aureus (S13E) = test: In vitro activity (MIC), agar dilution method; type: cell-based; conditions: Staphylococcus aureus
Procedure: as §1, §2

Staph. aureus (V41) = test: In vitro activity (MIC), agar dilution method; type: cell-based; conditions: Staphylococcus aureus; Staph. aureus (V41), agar dilution; read-out: MIC
Procedure: as §1, §2

Staph. aureus (X1.1) = test: In vitro activity (MIC), agar dilution method; type: cell-based; conditions: Staphylococcus aureus; Staph. aureus (X1.1), agar dilution; read-out: MIC
Procedure: as §1, §2

Staph. aureus (X400) = test: In vitro activity (MIC), agar dilution method; type: cell-based; conditions: Staphylococcus aureus; Staph. aureus (X400), methicillin-resistant strain, agar dilution; read-out: MIC
Procedure: as §1, §2

Staph. epiderm. (222) = test: In vitro activity (MIC), agar dilution method; type: cell-based; conditions: Staphylococcus epidermidis; Staph. epiderm. (222), methicillin-resistant strain, agar dilution; read-out: MIC
Procedure: as §1, §2

Staph. epiderm. (270) = test: In vitro activity (MIC), agar dilution method; type: cell-based; conditions: Staphylococcus epidermidis, methicillin-resistant strain
Procedure: as §1, §2

other Gram(-) bacteria = test: In vitro activity (MIC), agar dilution method; type: cell-based
[1] = MICs against 4 strains of methicillin-resistant staphylococci; type: cell-based, Staphylococcus aureus and Staphylococcus epidermidis; conditions: Staphylococcus aureus, read-out: minimal inhibitory concentrations (MICs)
Procedure: as §1, §2

H. influenzae (76) = test: In vitro activity (MIC), agar dilution method; type: cell-based; conditions: Haemophilus influenzae; H. influenzae (76), agar dilution; read-out: MIC
Procedure: as §1, §2

H. influenzae (C.L.) = test: In vitro activity (MIC), agar dilution method; type: cell-based; conditions: Haemophilus influenzae; H. influenzae (C.L.), agar dilution; read-out: MIC
Procedure: as §1, §2

Strept. pyogenes (C203) = test: In vitro activity (MIC), agar dilution method; type: cell-based; conditions: Streptococcus pyogenes; Strept. pyogenes (C203), agar dilution; read-out: MIC
Procedure: as §1, §2

[2] = system: 33 strains of methicillin-resistant staphylococci; test: Geometric mean MICs against 33 strains of methicillin-resistant staphylococci; type: cell-based
Procedure: as §2
It is known that resistance to methicillin in staphylococci is often of the heterogeneous type and therefore not easily detected. […] (Goldstein, F. W.; Acar, J. J. Antimicrob. Chemother. […], 27, 549). […] J.; Drake T. A.; Rusnak, M. G.; Sande, M. A. J. Infect. Dis. 1984, 149, 894).

[3] = system: methicillin-resistant staphylococci; conditions: in words; Frongillo 1984; cited from earlier work
[4] = system: methicillin-resistant staphylococci; conditions: in words; Chambers 1984; cited from earlier work
[5] = system: methicillin-resistant staphylococci; conditions: in words; Frongillo 1986; cited from earlier work

| SMILES | MIC (E. coli (EC14)) [µg/mL] | MIC (E. coli (N10)) [µg/mL] | MIC (E. coli (TEM)) [µg/mL] | MIC (Enter. faecalis (2041)) [µg/mL] | MIC (Enter. faecium (X66)) [µg/mL] | MIC (K. pneumonia (KAE)) [µg/mL] | MIC (K. pneumonia (X26)) [µg/mL] | MIC (K. pneumonia (X68)) [µg/mL] | MIC (Staph. aureus (S13E)) [µg/mL] | MIC (Staph. aureus (V41)) [µg/mL] | MIC (Staph. aureus (X1.1)) [µg/mL] | MIC (Staph. aureus (X400)) [µg/mL] | MIC (Staph. epiderm. (222)) [µg/mL] | MIC (Staph. epiderm. (270)) [µg/mL] | MIC (other Gram(-) bacteria) [µg/mL] | MIC [1] [µg/mL] | MIC (H. influenzae (76)) [µg/mL] | MIC (H. influenzae (C.L.)) [µg/mL] | MIC (Strept. pyogenes (C203)) [µg/mL] | also measured |
| --- | --- | --- | --- | --- | --- | --- | --- | --- | --- | --- | --- | --- | --- | --- | --- | --- | --- | --- | --- | --- |
| CC(=O)OCC1=C(C(=O)O)N2C(=O)[C@@H](NC(=O)Cc3csc(-c4cccc(O)c4)n3)[C@H]2SC1 [9m, [6R-[6A,7B(R*)]]-3-[(Acetyloxy)methyl]-7-[[[2-(3-hydroxyphenyl)-4-thiazolyl]acetyl]amino]-8-oxo-5-thia-1-azabicyclo[4.2.0]oct-2-ene-2-carboxylic Acid] | 128 (≈ 261 µM) | 128 (≈ 261 µM) | 128 (≈ 261 µM) | 16 (≈ 32.7 µM) | 32 (≈ 65.4 µM) | 128 (≈ 261 µM) | 4 (≈ 8.17 µM) | 128 (≈ 261 µM) | 8 (≈ 16.3 µM) | 1 (≈ 2.04 µM) | 0.25 (≈ 0.511 µM) | 16 (≈ 32.7 µM) | 0.25 (≈ 0.511 µM) | 1 (≈ 2.04 µM) | > 64 | ≤ 16 |  |  |  |  |
| COc1ccccc1-c1nc(CC(=O)N[C@@H]2C(=O)N3C(C(=O)O)=C(COC(C)=O)CS[C@H]23)cs1 [9o, [6R-[6A,7B(R*)]]-3-[(Acetyloxy)methyl]-7-[[[2-(2-methoxyphenyl)-4-thiazolyl]acetyl]amino]-8-oxo-5-thia-1-azabicyclo[4.2.0]oct-2-ene-2-carboxylic Acid] | 128 (≈ 254 µM) | 128 (≈ 254 µM) | 128 (≈ 254 µM) | 8 (≈ 15.9 µM) | 16 (≈ 31.8 µM) | 128 (≈ 254 µM) | 2 (≈ 3.97 µM) | 128 (≈ 254 µM) | 8 (≈ 15.9 µM) | 0.5 (≈ 0.993 µM) | 0.06 (≈ 0.119 µM) | 16 (≈ 31.8 µM) | 0.125 (≈ 0.248 µM) | 0.5 (≈ 0.993 µM) | > 64 | ≤ 16 | 4 (≈ 7.94 µM) | 64 (≈ 127 µM) | 0.015 (≈ 0.0298 µM) |  |
| Cn1nnnc1SCC1=C(C(=O)O)N2C(=O)[C@@H](NC(=O)[C@H](O)c3ccccc3)[C@H]2SC1 [Cefamandole] |  |  |  |  |  |  |  |  |  |  |  |  |  |  |  |  |  |  |  | MIC ([2]; MHA + 4% NaCl, 33 strains, 35° C., read-out: Geometric mean MIC): 13 µg/mL; MIC ([2]; MHA, 33 strains, read-out: Geometric mean MIC): 6.8 µg/mL (≈ 14.7 µM); activity against methicillin-resistant staphylococci [3]: among the most active β-lactam antibiotics against methicillin-resistant staphylococci; efficacy in animal models versus vancomycin [4]: poorer efficacy than vancomycin in animal models; clinical use for treatment of infections caused by methicillin-resistant staphylococci [5]: successfully used clinically for the treatment of infections caused by methicillin-resistant staphylococci |
| CO/N=C(\C(=O)N[C@@H]1C(=O)N2C(C(=O)O)=C(COC(C)=O)CS[C@H]12)c1csc(N)n1 [Cefot, Cefotaxime, reference compound] |  |  | 0.008 (≈ 0.0176 µM) | 1 (≈ 2.2 µM) | 128 (≈ 281 µM) |  | 0.008 (≈ 0.0176 µM) |  | 64 (≈ 141 µM) | 2 (≈ 4.39 µM) | 1 (≈ 2.2 µM) | 128 (≈ 281 µM) | 2 (≈ 4.39 µM) | 8 (≈ 17.6 µM) |  |  | 0.008 (≈ 0.0176 µM) | 0.008 (≈ 0.0176 µM) | 0.008 (≈ 0.0176 µM) | MIC (E. coli (EC14); E. coli (EC14), agar dilution, read-out: MIC): 0.015 µg/mL (≈ 0.0329 µM); MIC (E. coli (N10); E. coli (N10), agar dilution, read-out: MIC): 0.06 µg/mL (≈ 0.132 µM); MIC (K. pneumonia (KAE); K. pneumonia (KAE), agar dilution, read-out: MIC): 1 µg/mL (≈ 2.2 µM); MIC (K. pneumonia (X68); K. pneumonia (X68), agar dilution, read-out: MIC): 0.015 µg/mL (≈ 0.0329 µM) |
| Cc1onc(-c2ccccc2)c1C(=O)N[C@@H]1C(=O)N2[C@@H]1SC(C)(C)[C@@H]2C(=O)O [Oxacillin, reference compound] |  |  |  |  |  |  |  |  |  |  |  |  |  |  |  |  |  |  |  | MIC ([2]; read-out: Geometric mean MIC, MHA + 4% NaCl, 33 strains, 35° C.): 97 µg/mL; MIC ([2]; read-out: Geometric mean MIC, MHA, 33 strains): 49 µg/mL (≈ 122 µM) |
